Experimental data: US5279956A, “Activated protein C polypeptides and anti-peptide antibodies, diagnostic methods and systems for inhibiting activated protein C” (The Scripps Research Institute, priority 1991, dated 1994)
No end group written: not given here.

Target: T1, APC (Homo sapiens, UniProt P04070)
T1 construct: begins at amino acid residue position 158 and ends at 419; The light chain is 155 amino acid residues in length; tissue Factor IX concentrate from Immuno AG, Vienna; thrombin from Enzyme Research Laboratories
Assay: APC-catalyzed inactivation of Factor Va, read out by Factor Va-prothrombinase assay
Assay type: biochemical
Procedure: FIG. 5 illustrates the APC-catalyzed inactivation of Factor Va in the presence of peptide-(390-404) and phospholipids. The assay was carried out in TBS-BSA and 2.5 mM CaCl2 at pH 7.4 as described in Example 5a5) using 0.25 nM APC, 10.0 nM Va, 50 μM phospholipid vesicles and 0 to 50 μM peptide-(390-404), that had been preincubated for 20 minutes at 22° C. with Factor Va. Factor Va inactivation by APC was indirectly determined using the cofactor activity of Factor Va in a prothrombinase assay as described in Example 5a5). Residual APC activity in the presence of the peptide was calculated from a standard curve.
The assay consisted of two parts wherein the APC catalyzed inactivation of Factor Va in the absence or presence of peptides was tested in the first part followed by the indirect determination of remaining Factor Va activity in a prothrombinase assay in the second part.
The APC catalyzed inactivation of Factor Va assays were performed in 96-well flat bottom ELISA plates (Stockwell Scientific, Walnut, Calif.). The reactions were performed either in the presence or absence of phospholipid vesicles to determine if peptide-(390-404) inhibited APC anticoagulant activity by inhibiting the binding of APC or its substrate to phospholipids or if it was independent of phospholipid surfaces. […]

T1 sequence (P04070 212-461): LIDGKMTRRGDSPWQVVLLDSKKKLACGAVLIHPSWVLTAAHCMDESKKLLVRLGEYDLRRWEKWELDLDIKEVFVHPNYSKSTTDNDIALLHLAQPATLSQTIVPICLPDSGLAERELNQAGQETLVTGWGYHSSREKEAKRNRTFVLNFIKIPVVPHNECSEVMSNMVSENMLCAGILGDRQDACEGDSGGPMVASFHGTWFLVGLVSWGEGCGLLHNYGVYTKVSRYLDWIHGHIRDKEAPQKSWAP
T1 sequence (P04070 43-197): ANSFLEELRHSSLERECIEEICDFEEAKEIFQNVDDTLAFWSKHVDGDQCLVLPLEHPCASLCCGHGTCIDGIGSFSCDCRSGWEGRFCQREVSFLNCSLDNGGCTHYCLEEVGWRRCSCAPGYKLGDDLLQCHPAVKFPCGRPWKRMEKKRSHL

YGVYTKVSRYLDWIH-NH2 [peptide-(390-404), YGVYTKVSRYLDWIH]
IC50 (50 μM phospholipid vesicles, 0.25 nM APC, 10.0 nM Va, read-out: half-maximal inhibition of APC-catalyzed inactivation of Factor Va): 4 µM | inhibition of APC activity (absence of phospholipids, 5 nM APC, 40 nM Va, 50 μM peptide): 94%
